From ChEMBL document CHEMBL3397014, “The short way to chiral compounds with hexahydrofluoreno[9,1-bc]furan framework: synthesis and cytotoxic activity” (2015)

Tests used:
[1] = tested on: MT4; test: Induction of apoptosis in human MT4 cells at 0.9 uM after 48 hrs by propidium iodide staining based FACS flow cytometry (reference value: 3.5%); type: functional
[2] = tested on: MT4; test: Induction of apoptosis in human MT4 cells at 0.9 uM after 72 hrs by propidium iodide staining based FACS flow cytometry (reference value: 5.5%); type: functional
[3] = Cytotoxic activity against human U937 cells assessed as reduction in cell viability after 72 hrs by MTT assay; type: functional, U-937
[4] = tested on: MT4; test: Cytotoxic activity against human MT4 cells assessed as reduction in cell viability after 72 hrs by MTT assay; type: functional
[5] = tested on: MT4; test: Induction of apoptosis in human MT4 cells at 0.9 uM after 24 hrs by propidium iodide staining based FACS flow cytometry (reference value: 2.3%); type: functional
[6] = Cytotoxic activity against human CEM13 cells assessed as reduction in cell viability after 72 hrs by MTT assay; type: functional

| Compound | Activity [1] [%] | Activity [2] [%] | CTD50 [3] [µM] | CTD50 [4] [µM] | Activity [5] [%] | CTD50 [6] [µM] |
| --- | --- | --- | --- | --- | --- | --- |
| COc1cc2c(cc1O)[C@@H]1OC[C@@H]3CC(C(C)C)=CC2[C@@]31C (some centres undefined) | 16.3 | 27.7 | 50 | 0.93 | 12.8 | 93.3 |
| COc1cc2c(cc1O)C1C=C(C(C)C)C[C@H]3CO[C@@H]2[C@@]13C (some centres undefined) |  |  | 210 | 150 |  | 136.7 |
| COc1cc2c(c(OC)c1O)C1C=C(C(C)C)C[C@H]3CO[C@@H]2[C@@]13C (some centres undefined) |  |  | 136.4 | 224.2 |  | 157.6 |
| COc1cc2c(c(OC)c1OC)C1C=C(C(C)C)C[C@H]3CO[C@@H]2[C@@]13C (some centres undefined) |  |  | 66.9 | 200.6 |  | 49.4 |
| COc1cc(OC)c2c(c1OC)C1C=C(C(C)C)C[C@H]3CO[C@@H]2[C@@]13C (some centres undefined) |  |  | 116.3 | >250 |  | 81.4 |
| CC(C)C1=CC2Oc3cc(O)ccc3[C@@H]3OC[C@H](C1)[C@]23C (some centres undefined) |  |  | 164.3 | 150.3 |  | 111.9 |
| COc1cccc2c1C(=O)c1c(O)c3c(c(O)c1C2=O)C[C@@](O)(C(=O)CO)C[C@@H]3O[C@H]1C[C@H](N)[C@H](O)[C@H](C)O1 [DOXORUBICIN] |  |  | 0.17 | 2.76 |  | 3.44 |
